Measurements taken from PubChem BioAssay (NCI).
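Tested at 5 concentrations; 48 h exposure; 96-well plates; endpoints linearly interpolated, else capped at highest concentration. GI50 = concentration required for 50% inhibition of growth. TGI: concentration producing complete growth inhibition.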

What was measured:
Experiment in all cases: NCI-60 cell line screen, 48 h
786-0 renal = test system: 786-0 renal
A549 NSCLC = test system: A549 NSCLC
ACHN renal = test system: ACHN renal
EKVX NSCLC = test system: EKVX NSCLC
HCT-116 colon = test system: HCT-116 colon
HS 578T breast = test system: HS 578T breast
K-562 leukemia = test system: K-562 leukemia
MDA-MB-435 = test system: MDA-MB-435
MDA-N = test system: MDA-N
NCI-H226 lung = test system: NCI-H226 lung
NCI-H522 lung = test system: NCI-H522 lung
NCI/ADR-RES ovarian = test system: NCI/ADR-RES ovarian
OVCAR-5 ovarian = test system: OVCAR-5 ovarian
RPMI-8226 leukemia = test system: RPMI-8226 leukemia
SK-MEL-2 melanoma = test system: SK-MEL-2 melanoma
SK-OV-3 ovarian = test system: SK-OV-3 ovarian
TK-10 renal = test system: TK-10 renal
UACC-62 melanoma = test system: UACC-62 melanoma
UO-31 renal = test system: UO-31 renal

SMILES | TGI (786-0 renal) [µM] | TGI (A549 NSCLC) [µM] | TGI (ACHN renal) [µM] | TGI (EKVX NSCLC) [µM] | TGI (HCT-116 colon) [µM] | TGI (HS 578T breast) [µM] | TGI (K-562 leukemia) [µM] | TGI (MDA-MB-435) [µM] | TGI (MDA-N) [µM] | TGI (NCI-H226 lung) [µM] | TGI (NCI-H522 lung) [µM] | TGI (NCI/ADR-RES ovarian) [µM] | TGI (OVCAR-5 ovarian) [µM] | TGI (RPMI-8226 leukemia) [µM] | TGI (SK-MEL-2 melanoma) [µM] | TGI (SK-OV-3 ovarian) [µM] | TGI (TK-10 renal) [µM] | TGI (UACC-62 melanoma) [µM] | TGI (UO-31 renal) [µM] | GI50 (TK-10 renal) [µM]
CC(=O)O[C@@H]1C=C(C)[C@H](CBr)O[C@@]2(C)CC[C@H](Br)C(C)(C)[C@H]12 | > 100 | > 100 | > 100 | > 100 | > 100 | > 100 | > 100 | > 100 | > 100 | > 100 | 90.2 | > 100 | > 100 | > 100 | > 100 | > 100 | > 100 | > 100 | > 100 | –
CCOC(=O)/C(O)=C(/C=NC(=S)c1ccncc1)C(=O)OCC | > 100 | > 100 | > 100 | > 100 | > 100 | > 100 | > 100 | > 100 | > 100 | > 100 | > 100 | > 100 | > 100 | > 100 | > 100 | > 100 | > 100 | > 100 | > 100 | > 100
Brc1ccc2c(-c3nc(-c4c[nH]c5ccc(Br)cc45)cs3)c[nH]c2c1 | 6.33 | 17 | > 30 | 6.98 | 14.3 | > 52.9 | > 22.3 | 18.9 | 16.4 | 5.37 | 4.85 | 18.1 | 10.4 | 14 | 20.7 | 29.4 | 17.9 | > 48.4 | 13.7 | –
O=C1C(Br)=CC2(C=C1Br)CCN=c1c(O)c3c(c(O)c12)=NC=N3 | 30 | 37.9 | 27.7 | 32 | 30.3 | 71.5 | 41.1 | 23.4 | 3.34 | 37.4 | 28.1 | 52.9 | 29.4 | 50.9 | 21.3 | 48.2 | 59 | 24.2 | 29.4 | –
Cc1c(Cc2ccccc2)n(COCCCO)c(=O)[nH]c1=O | > 100 | > 100 | > 100 | > 100 | > 100 | > 100 | > 100 | > 100 | > 100 | > 100 | > 100 | > 100 | > 100 | > 100 | > 100 | > 100 | > 100 | > 100 | > 100 | –
C=C(C)[C@@H](C(=O)OC)N1C(=O)c2ccccc2C1=O | > 100 | > 100 | > 100 | > 100 | > 100 | > 100 | > 100 | > 100 | > 100 | > 100 | > 100 | > 100 | > 100 | > 100 | > 100 | > 100 | > 100 | > 100 | > 100 | –
Cc1nc(N)c(N2CCNCC2)c(=O)[nH]1 | > 100 | > 100 | > 100 | > 100 | > 100 | > 100 | > 100 | > 100 | > 100 | > 100 | > 100 | > 100 | > 100 | > 100 | > 100 | – | > 100 | – | > 100 | –
C=C1CC[C@@]2(OC1)OC1C[C@H]3[C@@H]4CC=C5C[C@@H](O)CC(OC6OCC(OC(=O)[C@@H](O)[C@@H](C)CC)C(OC(C)=O)C6OC6OC(C)C(O)C(O)C6O)[C@]5(C)[C@H]4CC[C@]3(C)C1[C@@H]2C (stereo partly drawn) | 3.27 | 4.73 | 5.93 | 6.51 | 3.06 | > 10 | 4.71 | 3.38 | 3.51 | 6.01 | 3.27 | 6 | 4.89 | 4.89 | 3.11 | 3.57 | 3.87 | 3.37 | 4.56 | –
Nc1nc(Cl)cc(NCC2(CO)CC(OCc3ccccc3)C2)n1 (stereo not drawn) | > 100 | > 100 | > 100 | > 100 | > 100 | > 100 | > 100 | > 100 | > 100 | > 100 | > 100 | > 100 | > 100 | > 100 | > 100 | > 100 | > 100 | > 100 | > 100 | –
N#CC1=C(N2CCCC2)NC(=O)CC1=O | > 100 | > 100 | > 100 | > 100 | > 100 | > 100 | > 100 | > 100 | > 100 | > 100 | > 100 | > 100 | > 100 | > 100 | > 100 | > 100 | > 100 | > 100 | > 100 | –
CCCCn1c(C)c(C(=O)OCC)c2cc(OCc3ccc(C(=O)Nn4c(C)ccc4C)cc3)c(Br)cc21 | > 100 | > 100 | > 100 | > 100 | > 100 | > 100 | > 100 | > 100 | > 100 | > 100 | > 100 | > 100 | > 100 | > 100 | > 100 | > 100 | > 100 | > 100 | – | –
CCOC(=O)C(Cl)(NC(=O)c1ccc(F)cc1)C(F)(F)F (stereo not drawn) | > 100 | > 100 | > 100 | > 100 | > 100 | > 100 | > 100 | > 100 | > 100 | > 100 | > 100 | > 100 | > 100 | > 100 | > 100 | > 100 | > 100 | – | > 100 | –
Clc1ccc2c(NCCCCN=Cc3ccccc3)ccnc2c1 | 22.2 | 31.3 | 49 | 43.7 | 18.4 | 36.6 | > 100 | 25.2 | 23.9 | 20 | 24.5 | 46.7 | 40.4 | > 100 | 24.5 | 59.8 | 64 | – | 40.3 | –
COC1(OC)C2(Cl)CCC1(Cl)C(OC(C)=O)C2 (stereo not drawn) | > 100 | > 100 | > 100 | > 100 | > 100 | > 100 | > 100 | > 100 | > 100 | > 100 | > 100 | > 100 | > 100 | > 100 | > 100 | > 100 | > 100 | > 100 | > 100 | –
CCC1c2[nH]c3ccccc3c2C[C@H]2C(=O)NC(CCC(=O)OC(C)(C)C)C(=O)N12 (stereo partly drawn) | > 100 | > 100 | > 100 | > 100 | > 100 | > 100 | > 100 | > 100 | > 100 | > 100 | > 100 | > 100 | > 100 | 97.9 | > 100 | > 100 | > 100 | > 100 | > 100 | –
CN1CCC(OC(=O)Oc2ccccc2)(c2ccccc2)CC1 | > 100 | > 100 | > 100 | 79.5 | 30.5 | 54.3 | 55.3 | 33.7 | 34.9 | 62.7 | 49.8 | 39.2 | 84.2 | 35.7 | 33.2 | 52.9 | 37.7 | 37.6 | 54.2 | –
O=P(c1ccccc1)(c1ccccc1)C(NCc1ccccc1)c1ccc(F)cc1 (stereo not drawn) | 34.8 | 30.2 | 27.5 | 25.4 | 25.7 | 98.2 | 65.4 | 23 | 33.1 | 40.4 | 25.2 | 41.2 | – | > 100 | 29 | 34.1 | 32 | 27.3 | 25.3 | –
O=P(O)(O)CN1CCN(CP(=O)(O)O)CCN(CP(=O)(O)O)CCN(CP(=O)(O)O)CC1 | > 100 | > 100 | > 100 | > 100 | > 100 | > 100 | > 100 | > 100 | > 100 | > 100 | > 100 | > 100 | > 100 | 93.5 | > 100 | – | > 100 | > 100 | > 100 | –
O=C1NC(Nc2cccc(Cl)c2)=N/C1=C\c1ccc(Cl)c(Cl)c1 | 13 | 16 | 17 | 12.2 | 14.2 | 13.4 | 14.5 | 17.6 | 15.8 | 17.2 | 6.62 | 16.2 | 21.8 | 22.7 | 6.77 | 27.5 | 22.4 | 21.6 | 20.6 | –
CC(=O)NNc1nc(C)c(C(/C=C/c2cccc([N+](=O)[O-])c2)=N/NC(=S)NN)s1 | > 100 | > 100 | > 100 | > 100 | > 100 | > 100 | > 100 | > 100 | > 100 | > 100 | > 100 | > 100 | > 100 | > 100 | > 100 | > 100 | > 100 | > 100 | > 100 | –
CC(=O)NCc1nc(C#N)c(N)o1 | > 100 | > 100 | > 100 | > 100 | > 100 | > 100 | > 100 | > 100 | > 100 | > 100 | > 100 | > 100 | > 100 | > 100 | > 100 | > 100 | > 100 | > 100 | > 100 | –
CCOC(=O)Cn1sc2ncc([N+](=O)[O-])cc2c1=O | 30.6 | 39.7 | 29.5 | > 100 | 31.1 | > 100 | 12.3 | 30 | 24.9 | > 100 | 39.5 | 35.5 | 38 | > 100 | 70.9 | 34.6 | 32.8 | 48.4 | 21.8 | –
CSc1nc(Cl)c2c(n1)Sc1nc3cc4c(cc3n1C2O)OCO4 (stereo not drawn) | > 39 | > 47.9 | > 100 | > 100 | > 47.4 | > 30.4 | > 100 | > 100 | 36.1 | 6.09 | 0.639 | 5.72 | > 100 | > 20.8 | > 64.4 | > 75.3 | > 100 | 14.2 | > 57.8 | –
Cc1ccc(S(=O)(=O)OC2C3OC(C)(C)OC3OC2C(c2cc(O)c3c(c2O)C(=O)c2ccccc2C3=O)c2cc(O)c3c(c2O)C(=O)c2ccccc2C3=O)cc1 (stereo not drawn) | > 10 | > 10 | > 10 | > 10 | > 10 | > 10 | > 10 | > 10 | > 10 | > 10 | > 10 | > 10 | > 10 | > 10 | > 10 | > 10 | > 10 | > 10 | > 10 | –
CCCN=C(NC(=O)c1ccc(Cl)cc1)SC | > 100 | > 100 | > 100 | > 100 | > 100 | 95 | > 100 | > 100 | > 100 | > 100 | > 100 | > 100 | > 100 | > 100 | > 100 | > 100 | – | > 100 | 46.4 | –
